Biological target: T1, recombinant human sGC (soluble guanylyl cyclase), α1 and β1 subunits (Homo sapiens, UniProt Q02108+Q02153)
T1 sequence (Q02108 1-690): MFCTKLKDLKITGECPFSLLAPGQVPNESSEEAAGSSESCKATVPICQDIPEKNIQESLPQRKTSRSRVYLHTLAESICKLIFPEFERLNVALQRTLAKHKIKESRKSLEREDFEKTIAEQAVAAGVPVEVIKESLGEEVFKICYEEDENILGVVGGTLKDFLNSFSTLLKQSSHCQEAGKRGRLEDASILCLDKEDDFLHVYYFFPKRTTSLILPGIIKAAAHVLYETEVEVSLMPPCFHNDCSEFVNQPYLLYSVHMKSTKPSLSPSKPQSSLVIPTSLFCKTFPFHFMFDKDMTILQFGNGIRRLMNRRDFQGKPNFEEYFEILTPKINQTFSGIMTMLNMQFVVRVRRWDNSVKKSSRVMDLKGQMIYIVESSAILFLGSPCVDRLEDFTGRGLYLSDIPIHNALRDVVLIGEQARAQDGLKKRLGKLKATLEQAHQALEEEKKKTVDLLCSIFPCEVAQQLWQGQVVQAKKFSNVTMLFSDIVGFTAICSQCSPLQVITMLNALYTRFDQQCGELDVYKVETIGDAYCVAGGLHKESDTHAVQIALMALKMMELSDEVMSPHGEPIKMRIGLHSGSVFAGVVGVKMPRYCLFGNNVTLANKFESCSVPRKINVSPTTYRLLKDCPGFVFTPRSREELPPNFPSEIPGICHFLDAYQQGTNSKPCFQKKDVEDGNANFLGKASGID
T1 sequence (Q02153 1-619): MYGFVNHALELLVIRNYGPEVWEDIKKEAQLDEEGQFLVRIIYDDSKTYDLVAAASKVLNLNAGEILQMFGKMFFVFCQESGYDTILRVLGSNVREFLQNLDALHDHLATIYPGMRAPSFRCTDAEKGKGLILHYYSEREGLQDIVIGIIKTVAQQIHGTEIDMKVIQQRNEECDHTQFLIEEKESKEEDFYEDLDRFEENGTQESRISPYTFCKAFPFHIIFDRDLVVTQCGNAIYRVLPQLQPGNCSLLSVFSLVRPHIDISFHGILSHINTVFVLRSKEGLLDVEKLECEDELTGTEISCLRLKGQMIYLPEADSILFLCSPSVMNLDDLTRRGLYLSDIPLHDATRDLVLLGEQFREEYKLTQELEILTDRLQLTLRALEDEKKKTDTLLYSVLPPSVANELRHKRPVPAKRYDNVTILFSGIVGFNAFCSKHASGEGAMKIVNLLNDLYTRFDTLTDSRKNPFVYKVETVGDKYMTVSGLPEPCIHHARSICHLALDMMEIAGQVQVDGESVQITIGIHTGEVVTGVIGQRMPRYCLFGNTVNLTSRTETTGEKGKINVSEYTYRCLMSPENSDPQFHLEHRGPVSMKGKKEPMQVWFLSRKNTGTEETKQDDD
Assay: [alpha-32P]GTP to […]cGMP conversion assay
Assay type: biochemical
Conditions: read-out: EC50 [μM] ^b; activation; preincubation with compound at 25 °C

For `C#N.C#N.C/C1=C2/NC([C@H](CC(N)=O)[C@@]2(C)CCC(=O)NCC(C)O)[C@]2(C)N=C(/C(C)=C3N=C(/C=C4N=C1[C@@H](CCC(N)=O)C\4(C)C)[C@@H](CCC(N)=O)[C@]\3(C)CC(N)=O)[C@@H](CCC(N)=O)[C@]2(C)CC(N)=O.[Co]` (stereo partly shown) [compound 1, dicyanocobinamide], the EC50 was 34.2 µM.
